Experimental data taken from patent US11959088B2, “Modifying protein production in plants” (MEDICAGO INC., priority 2014, dated 2024).

What was measured:
[1] = tested on: Nicotiana benthamiana plants; assay: BAP treatment after seedling transplantation: primary and secondary leaf biomass; type: in vivo
[2] = tested on: Nicotiana benthamiana plants; assay: BAP treatment after seedling transplantation: HA production (hemagglutination assay) after agroinfiltration with construct 484; type: in vivo; details: 500 ppm after 7 and 12 days
[3] = 500 ppm 7 days after transplantation

With c1ccc(CNc2ncnc3nc[nH]c23)cc1 [BAP, 6-benzylaminopurine] the “effect on primary biomass” value ([1]; 100, 500 or 1,000 ppm, 7 and/or 12 days after transplantation (FIG. 9)) was “little effect”, the “effect on secondary biomass production” value ([1]; 100 or 500 ppm, 7 and/or 12 days after transplantation (FIG. 9)) was “significant positive effect” and the “increase for primary biomass compared to control” value [1, 3] was “less than 10%”. For the same compound, the “relative increase of secondary leaf biomass compared to control (non-treated) plants” value [1, 3] was “about 37.5%”, the “effect on secondary biomass production” value ([1]; 1,000 ppm treatment (FIG. 9)) was “no positive impact” and the “secondary leaf biomass harvested” value ([1]; plants treated with 500 ppm 7 days after transplantation, control ca. 16 g) was “ca. 22 g”. For the same compound, the “increase of total HA yield per plant” value ([2]; versus control (non-treated) plants) was 45-50% and the “yield of HA per g fresh weight” value ([2]; control less than 200,000 units (FIG. 10)) was “more than 300,000 units per g fresh weight”.
